From publication PMC7020211, “Inhibition of Digestive Enzymes and Antioxidant Activity of Extracts from Fruits of Cornus alba, Cornus sanguinea subsp. hungarica and Cornus florida–A Comparative Study” (Plants, 2020)

test system: not listed separately; experiment: DPPH radical scavenging assay; settings: half scavenging concentration; 30 min incubation, absorbance 518 nm
Procedure: The scavenging of DPPH radical was examined using a modified assay previously described. The equal volumes (100 µL) of ethanolic solution of DPPH (0.02 M) and extract samples dissolved in 50% (v/v) aqueous-ethanol were added into 96-well microplates and incubated for 30 min in the darkness. The absorbance was measured at 518 nm with microplate reader (Synergy 4, Biotek, USA). The blind samples were prepared in order to exclude color interference. Ascorbic acid was used as a positive control.

For O=C1O[C@H]([C@@H](O)CO)C(O)=C1O [Ascorbic acid], the “SC50 DPPH scavenging” value was 3.73 ± 0.83 µg/mL.

target: α-glucosidase from Saccharomyces cerevisiae (Saccharomyces cerevisiae, UniProt P53341); experiment: α-glucosidase inhibition (pNPG, spectrophotometric); assay type: biochemical; settings: pNPG substrate, pH 6.8, 37 °C; read-out: IC50 [mM] inhibition of α-glucosidase by compounds isolated from fruit of Cornus alba
Source text: Acetonitrile (MeCN, UHPLC-grade), n-butanol (BuOH), chloroform (CHCl3), ethyl acetate (EtOAc), ethanol (EtOH) and methanol (MeOH) for extraction were obtained from POCH (Gliwice, Poland). Natural product reagent A (diphenylboric acid 2-aminoethyl ester) and quercetin 3-O-glucoside (isoquercitrin) were purchased from Carl Roth GmbH (Karlsruhe, Germany). […] Quercetin 3-O-galactoside (hyperoside) was purchased from HWI Analytik GmbH (Rheinzaberner, Germany). […] Water was obtained using Millipore Simfilter Simplicity UV (Molsheim, France) water purification system. HPLC-DAD-MS^n analysis was performed on a UHPLC-3000 RS system (Dionex, Germany) with DAD and an AmaZon SL ion trap mass spectrometer with an ESI interface (Bruker Daltonik GmbH, Germany). […] If needed, additional experiments, such as HSQC and HMBC were performed. The NMR spectra were acquired using Varian VNMRS 300 Oxford 300 MHz spectrometer (Bruker, Billerica, MA, USA).
The α-glucosidase inhibition by extracts was determined spectrophotometrically according to the modified assay previously described. The colorimetric measurement of enzyme activity was based on the hydrolytic cleavage of a substrate, p-nitrophenyl-α-D-glucopyranoside (pNPG). Briefly, sample solution of tested extract or isolated compound (150 µl) dissolved in 0.1 M phosphate buffer (pH 6.8) was incubated with 50 µL of α-glucosidase solution (0.4 U/mL) at 37 °C. After 15 min of incubation, the substrate solution (0.7 mM in 0.1 M phosphate buffer, pH 6.8) was added and the second 15 min incubation at 37 °C was performed. The reaction was terminated by adding 50 µL sodium carbonate solution (0.2 M). The absorbance of p-nitrophenol was measured at 405 nm in a microplate reader (Synergy 4, Biotek, USA).

Sequence of α-glucosidase from Saccharomyces cerevisiae (P53341 whole entry): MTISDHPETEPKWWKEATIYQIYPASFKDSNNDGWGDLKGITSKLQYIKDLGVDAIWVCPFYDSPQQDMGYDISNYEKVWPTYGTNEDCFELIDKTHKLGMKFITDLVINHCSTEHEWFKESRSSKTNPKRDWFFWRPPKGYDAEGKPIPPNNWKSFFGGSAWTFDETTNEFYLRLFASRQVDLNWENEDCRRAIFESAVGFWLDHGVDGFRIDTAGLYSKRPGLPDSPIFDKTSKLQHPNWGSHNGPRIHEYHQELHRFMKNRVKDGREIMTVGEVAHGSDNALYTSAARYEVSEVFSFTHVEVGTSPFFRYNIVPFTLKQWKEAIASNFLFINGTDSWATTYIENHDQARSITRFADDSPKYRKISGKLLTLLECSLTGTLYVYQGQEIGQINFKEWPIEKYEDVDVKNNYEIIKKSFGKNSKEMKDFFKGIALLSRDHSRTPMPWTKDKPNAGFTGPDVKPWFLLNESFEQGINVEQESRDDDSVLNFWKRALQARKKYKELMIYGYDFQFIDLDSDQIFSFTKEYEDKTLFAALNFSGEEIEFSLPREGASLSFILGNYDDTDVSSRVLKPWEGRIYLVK

In order of falling IC50:
1. OC[C@H]1O[C@@H](OCCc2ccc(O)c(O)c2)[C@H](O)[C@@H](O)[C@@H]1O [compound 5, hydroxytyrosol glucoside]  1.46 ± 0.18 mM
2. O=C(C=Cc1ccc(O)cc1)OC1CC(O)(C(=O)O)CC(O)C1O (centres unmarked) [compound 2, 5-O-coumaroylquinic acid]  0.84 ± 0.14 mM
3. COC(=O)[C@H]1O[C@@H](Oc2c(-c3ccc(O)cc3)oc3cc(O)cc(O)c3c2=O)[C@H](O)[C@@H](O)[C@@H]1O [compound 4, kaempferol 3-O-glucuronide 6″-methylester]  0.21 ± 0.05 mM
4. COC(=O)C1(O)CC(O)C(O)C(OC(=O)/C=C/c2ccc(O)cc2)C1 (centres unmarked) [compound 3, 5-O-(E)-p-coumaroylquinic acid methyl ester]  0.16 ± 0.01 mM

target: α-glucosidase; experiment: not given; design: method as in doi:10.1016/j.jff.2017.04.005; settings: cited from earlier work

In order of rising IC50:
1. kaempferol-3-O-rutinoside  10.2 µM
2. O=c1c(O[C@@H]2O[C@H](CO)[C@@H](O)[C@H](O)[C@H]2O)c(-c2ccc(O)c(O)c2)oc2cc(O)cc(O)c12 [quercetin-3-O-glucoside]  12.3 µM
3. O=C(O)/C=C/c1ccc(O)c(O)c1 [caffeic acid]  223 µM
4. O=C(O)c1cc(O)c(O)c(O)c1 [gallic acid]  296 µM
5. COc1cc(/C=C/C(=O)O)ccc1O [ferulic acid]  461 µM

test system: PL; experiment: not given; design: method as in doi:10.1016/j.jff.2017.04.005; settings: read-out: IC50 against PL activity; cited from earlier work

In order of falling IC50:
1. O=C(O)c1cc(O)c(O)c(O)c1 [gallic acid]  5050 µM
2. O=C(/C=C/c1ccc(O)c(O)c1)O[C@@H]1C[C@](O)(C(=O)O)C[C@@H](O)[C@H]1O [compound 1, chlorogenic acid]  3810 µM
3. O=c1c(O[C@@H]2O[C@H](CO)[C@@H](O)[C@H](O)[C@H]2O)c(-c2ccc(O)cc2)oc2cc(O)cc(O)c12 [kaempferol-3-O-glucoside]  3520 µM
4. O=c1c(O[C@@H]2O[C@H](CO)[C@@H](O)[C@H](O)[C@H]2O)c(-c2ccc(O)c(O)c2)oc2cc(O)cc(O)c12 [quercetin-3-O-glucoside]  1740 µM

test system: not given; experiment: not given; design: method as in PMID 11958615; settings: concentration of 40 µM; cited from earlier work

In order of falling antioxidant activity:
1. OC[C@H]1O[C@@H](Oc2cc3c(O)cc(O)cc3[o+]c2-c2cc(O)c(O)c(O)c2)[C@H](O)[C@@H](O)[C@H]1O [delphinidin 3-O-β-galactoside]  70.2%
2. OC[C@H]1O[C@@H](Oc2cc3c(O)cc(O)cc3[o+]c2-c2ccc(O)c(O)c2)[C@H](O)[C@@H](O)[C@H]1O [cyanidin 3-O-β-galactoside]  60.1%
3. OCC1OC(Oc2cc3c(O)cc(O)cc3[o+]c2-c2ccc(O)cc2)C(O)C(O)C1O (stereo not drawn) [pelargonidin 3-O-β-galactoside]  40.3%

test system: glucosidase; experiment: not given; design: method as in Dehghan et al., 2018; settings: ref Dehghan et al., 2018; cited from earlier work

For Cc1cc(O)c2c(c1)C(=O)c1cc(O)cc(O)c1C2=O [emodin], the “anti-glucosidase activity (in words)” value is given as “relevant anti-glucosidase activity”.
In the case of COc1cc(O)c2c(c1)C(=O)c1cc(C)cc(O)c1C2=O [physcion], the “anti-glucosidase activity (in words)” value is listed as “relevant anti-glucosidase activity”.
In the case of C[C@H](CCc1ccc(O)cc1)O[C@@H]1O[C@H](CO)[C@@H](O)[C@H](O)[C@H]1O [rhododendrin], the “anti-glucosidase activity (in words)” value is given as “relevant anti-glucosidase activity”.
